Earlier results in PubChem BioAssay AID1259409 (Chemical Carcinogenesis Research Information System (CCRIS), 2018).

Test system: rodent chemically induced tumor inhibition, incidence and multiplicity
Experiment: CCRIS tumor inhibitor studies

Oc1cc(O)c2c(c1)O[C@H](c1ccc(O)c(O)c1)[C@@H](O)C2
tumour outcome (control, treated, inhibition, significance) (Carcinogen: 1,2-DIMETHYLHYDRAZINE [540-73-6], Species: RAT, Strain/Sex: WISTAR, Target Tissue: Type of Lesion: COLON, Dose [Carcinogen]: 20 MG/KG): 81.3%, 58.8%, 27.7%, p<0.05
tumour outcome (control, treated, inhibition, significance) (Carcinogen: 7,12-DIMETHYLBENZ[A]ANTHRACENE, 57-97-6, Dose [Inhibitor]: 0, 0.2 ML OF A 1% SOLUTION 1/D FOR 2 WK APPLIED 5 MIN POST EACH CARCINOGEN DOSE THEN 1/D FOR 4 WK DURING PROMOTION STAGE, Route [Inhibitor]: DERMAL, Species: MOUSE, Strain/Sex: SWISS/MALE, Target Tissue: Type of Lesion: SKIN: PAPILLOMA, Dose [Carcinogen]: 0.2 ML OF A 0.24% SOLUTION IN DMSO 1/D FOR 2 WK, Promoter: CROTON OIL, 8001-28-3): 23/23 (100%), 16/23 (70%), 30%, not calculated
tumour outcome (control, treated, inhibition, significance) (Carcinogen: 7,12-DIMETHYLBENZ[A]ANTHRACENE, 57-97-6, Dose [Inhibitor]: 0, 0.2 ML OF A 1% SOLUTION 1/D FOR 2 WK APPLIED 5 MIN PRIOR TO EACH CARCINOGEN DOSE (STUDY DURATION: 20 WK), Route [Inhibitor]: DERMAL, Species: MOUSE, Strain/Sex: SWISS/MALE, Target Tissue: Type of Lesion: SKIN: PAPILLOMA, Dose [Carcinogen]: 0.2 ML OF A 0.24% SOLUTION IN DMSO 1/D FOR 2 WK, Promoter: CROTON OIL, 8001-28-3): 23/23 (100%), 20/23 (87%), 13%, not calculated
tumour outcome (control, treated, inhibition, significance) (Carcinogen: 7,12-DIMETHYLBENZ[A]ANTHRACENE, 57-97-6, Dose [Inhibitor]: 0, 2.5 MG/D IN DRINKING WATER FOR DURATION OF STUDY BEGINNING 2 WK PRIOR TO CARCINOGEN DOSE (STUDY DURATION: 6 MO), Route [Inhibitor]: ORAL, Species: RAT, Strain/Sex: WISTAR/FEMALE, Target Tissue: Type of Lesion: MAMMARY GLAND: TUMOR, Dose [Carcinogen]: 10 MG IN PEANUT OIL INJECTED INTO SUBCUTANEOUS POUCH CREATED IN THE 5TH AND 6TH MAMMARY GLAND REGION, Promoter: NONE USED): 20/20 (100%), 4/20 (20%), 80%, p<0.001
tumour outcome (control, treated, inhibition, significance) (Carcinogen: 7,12-DIMETHYLBENZ[A]ANTHRACENE, 57-97-6, Dose [Inhibitor]: 0, 4 MG 2/WK FOR 20 WK BEGINNING 2 WK POST CARCINOGEN DOSE (STUDY DURATION: 22 WK), Route [Inhibitor]: DERMAL, Species: MOUSE, Strain/Sex: CF-1/FEMALE, Target Tissue: Type of Lesion: SKIN: PAPILLOMA, Dose [Carcinogen]: 25.6 UG ONCE, Promoter: 12-O-TETRADECANOYLPHORBOL-13-ACETATE, 16561-29-8): 97%, 97%, 0%, not significant
tumour outcome (control, treated, inhibition, significance) (Carcinogen: 7,12-DIMETHYLBENZ[A]ANTHRACENE, 57-97-6, Dose [Inhibitor]: 0, 12 MG 2/WK FOR 20 WK BEGINNING 2 WK POST CARCINOGEN DOSE (STUDY DURATION: 22 WK), Route [Inhibitor]: DERMAL, Species: MOUSE, Strain/Sex: CF-1/FEMALE, Target Tissue: Type of Lesion: SKIN: PAPILLOMA, Dose [Carcinogen]: 25.6 UG ONCE, Promoter: 12-O-TETRADECANOYLPHORBOL-13-ACETATE, 16561-29-8): 97%, 91%, 6%, not significant
tumour outcome (control, treated, inhibition, significance) (Carcinogen: BENZO[A]PYRENE, 50-32-8, Dose [Inhibitor]: 0, 2.5 MG/D IN DRINKING WATER FOR 8 WK BEGINNING 2 WK PRIOR TO CARCINOGEN TREATMENT (STUDY DURATION: 20 WK), Route [Inhibitor]: ORAL, Species: MOUSE, Strain/Sex: SWISS/FEMALE, Target Tissue: Type of Lesion: FORESTOMACH: TUMOR, Dose [Carcinogen]: 1 MG IN 0.1 ML PEANUT OIL 2/WK FOR 4 WK, Promoter: NONE USED): 20/20 (100%), 16/20 (80%), 20%, not significant
tumour outcome (control, treated, inhibition, significance) (Carcinogen: METHYL(ACETOXYMETHYL)NITROSAMINE, 56856-83-8, Dose [Inhibitor]: 0, 1.7 MG/D IN DRINKING WATER FOR DURATION OF STUDY BEGINNING 2 WK PRIOR TO CARCINOGEN TREATMENT (STUDY DURATION: 13 MO), Route [Inhibitor]: ORAL, Species: HAMSTER, Strain/Sex: SYRIAN/FEMALE, Target Tissue: Type of Lesion: ORAL: CAVITY, Dose [Carcinogen]: 2 MG/KG BW APPLIED TO RIGHT CHEEK POUCH 2/MO FOR 6 MO, Promoter: NONE USED): 14/15 (93%), 4/15 (27%), 71%, p<0.001
tumour outcome (control, treated, inhibition, significance) (Carcinogen: N-ETHYL-N-HYDROXYETHYLNITROSAMINE, 13147-25-6, Dose [Inhibitor]: 0, 0.8% IN DIET FOR 36 WK BEGINNING 1 WK POST CARCINOGEN TREATMENT (STUDY DURATION: 40 WK), Route [Inhibitor]: ORAL, Species: RAT, Strain/Sex: WISTAR/MALE, Target Tissue: Type of Lesion: KIDNEY: MICROADENOMA, Dose [Carcinogen]: 0.1% IN DRINKING WATER FOR 3 WK, Promoter: NONE USED): 11/17 (65%), 12/17 (71%), -9%, not significant
tumour outcome (control, treated, inhibition, significance) (Carcinogen: N-ETHYL-N-HYDROXYETHYLNITROSAMINE, 13147-25-6, Dose [Inhibitor]: 0, 0.8% IN DIET FOR 36 WK BEGINNING 1 WK POST CARCINOGEN TREATMENT (STUDY DURATION: 40 WK), Route [Inhibitor]: ORAL, Species: RAT, Strain/Sex: WISTAR/MALE, Target Tissue: Type of Lesion: KIDNEY: RENAL CELL TUMOR, Dose [Carcinogen]: 0.1% IN DRINKING WATER FOR 3 WK, Promoter: NONE USED): 14/17 (82%), 11/17 (65%), 21%, not significant
tumour outcome (control, treated, inhibition, significance) (Carcinogen: N-ETHYL-N-HYDROXYETHYLNITROSAMINE, 13147-25-6, Dose [Inhibitor]: 0, 0.8% IN DIET FOR 36 WK BEGINNING 1 WK POST CARCINOGEN TREATMENT (STUDY DURATION: 40 WK), Route [Inhibitor]: ORAL, Species: RAT, Strain/Sex: WISTAR/MALE, Target Tissue: Type of Lesion: LIVER: HEPATOCELLULAR ADENOMA, Dose [Carcinogen]: 0.1% IN DRINKING WATER FOR 3 WK, Promoter: NONE USED): 10/17 (59%), 11/17 (65%), -10%, not significant
tumour outcome (control, treated, inhibition, significance) (Carcinogen: N-ETHYL-N-HYDROXYETHYLNITROSAMINE, 13147-25-6, Dose [Inhibitor]: 0, 0.8% IN DIET FOR 36 WK BEGINNING 1 WK POST CARCINOGEN TREATMENT (STUDY DURATION: 40 WK), Route [Inhibitor]: ORAL, Species: RAT, Strain/Sex: WISTAR/MALE, Target Tissue: Type of Lesion: LIVER: HEPATOCELLULAR CARCINOMA, Dose [Carcinogen]: 0.1% IN DRINKING WATER FOR 3 WK, Promoter: NONE USED): 7/17 (41%), 3/17 (18%), 56%, not significant
tumour outcome (control, treated, inhibition, significance) (Carcinogen: N-NITROSOBIS(2-HYDROXYPROPYL)AMINE, 53609-64-6, Dose [Inhibitor]: 0, 1.5% IN DIET FOR 30 WK BEGINNING POST CARCINOGEN TREATMENT (STUDY DURATION: 35 WK), Route [Inhibitor]: ORAL, Species: HAMSTER, Strain/Sex: SYRIAN/MALE, Target Tissue: Type of Lesion: PANCREAS: ADENOCARCINOMA, Dose [Carcinogen]: 500 MG/KG 1/WK FOR 5 WK, Promoter: NONE USED): 8/17 (47%), 5/19 (26%), 45%, not significant
tumour outcome (control, treated, inhibition, significance) (Carcinogen: NONE USED, Dose [Inhibitor]: 0, 2.5 MG/D IN DRINKING WATER FROM 8 MO OF AGE (STUDY DURATION: 15 MO), Route [Inhibitor]: ORAL, Species: MOUSE, Strain/Sex: C3H/FEMALE, Target Tissue: Type of Lesion: MAMMARY GLAND: TUMOR, Promoter: NONE USED): 12/20 (60%), 8/20 (40%), 33%, not calculated

C/C=C(/C)C(=O)OC1c2c(ccc3ccc(=O)oc23)OC(C)(C)C1OC(=O)/C(C)=C\C (stereo unspecified)
tumour outcome (control, treated, inhibition, significance) (Carcinogen: 7,12-DIMETHYLBENZ[A]ANTHRACENE, 57-97-6, Dose [Inhibitor]: 10 UMOL APPLIED 40 MINUTES PRIOR TO PROMOTER DOSE (STUDY DURATION: 20 WK), Route [Inhibitor]: DERMAL, Species: MOUSE, Strain/Sex: ICR/FEMALE, Target Tissue: Type of Lesion: SKIN: PAPILLOMA, Dose [Carcinogen]: 100 UG ONCE): 100%, 0%, 100%, not calculated

COc1cc([C@H]2Oc3cc([C@H]4Oc5cc(O)cc(O)c5C(=O)[C@@H]4O)ccc3O[C@@H]2CO)ccc1O
outcome (Carcinogen: N-Butyl-N-(4-hydroxybutyl)nitrosamine, 3817-11-6, Dose [Inhibitor]: 200 mg/kg bw 1 wk before carcinogen, dose duration 51 wk, study duration 56 wk, Route [Inhibitor]: Oral (gavage) 5 d/wk, Species: Mouse, Strain/Sex: ICR/Male, Target Tissue: Type of Lesion: Urinary Bladder: carcinoma, Dose [Carcinogen]: 0, 0.5% in drinking water for 6 wk, Promoter: None): 52%, 4.1%, p=0.001
